This passage reports IC50 results from US7786299B2, “Methods for treating diseases or conditions using dihydropteridinone compounds” (Boehringer Ingelheim Pharma GmbH & Co. KG, priority 2003, dated 2010).

The structures appear in SMILES notation.

One assay has as its system HeLaS3 cells. Description: Measurement of cytotoxicity on cultivated human tumour cells (AlamarBlue). Type of assay: cell-based. To be noted: HeLa in Table 1; unit inferred. In a few lines:
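HeLaS3 cervical cancer cells, 1000 cells/well in Ham's F12 with 10% FCS, exposed 72 h to compound (1% DMSO final) in triplicate. AlamarBlue added for further 7 h, fluorescence at ex 530/em 590 nm; IC50 from activity as percent of untreated control, medium-corrected.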
(Alamar Blue is a resazurin reagent that responds to reducing activity.)

The next assay concerns H460-VINC. As to the kind of experiment: Cytotoxicity on H460-VINC cells (Table 1; method not given). Type of assay: cell-based. To be noted: H460-VINC of Table 1; unit inferred.

For the compound `CCC1C(=O)N(C)c2cnc(Nc3ccc(C(=O)NC4CCC(N5CCN(C)CC5)CC4)cc3OC)nc2N1C(C)C` (centres unmarked) [Example 113], the half-inhibitory concentration (IC50) turned out to be 37 nM in the assay with HeLaS3 cells and 687 nM in the assay on H460-VINC.

Take `COc1cc(C(=O)NC2CCC(N(C)C)CC2)ccc1Nc1ncc2c(n1)N(C1CCCC1)C(C)C(=O)N2C` (centres unmarked) [Example 13]: the IC50 with HeLaS3 cells came to 26 nM; in the assay with H460-VINC it was 1320 nM.

Take `CCC1C(=O)N(C)c2cnc(Nc3ccc(C(=O)NC4CCC(N5CCCC5)CC4)cc3OC)nc2N1C(C)C` (centres unmarked) [Example 135]: the IC50 in the assay on HeLaS3 cells was found to be 12 nM; in the assay on H460-VINC it was 699 nM.

`CCC1C(=O)N(C)c2cnc(Nc3ccc(C(=O)NC(C)(C)CN4CCCC4)cc3OC)nc2N1C(C)C` (centres unmarked) [Example 54]: the IC50 in the assay on HeLaS3 cells is 31 nM; in the assay on H460-VINC it was 226 nM.

For `CC[C@@H]1C(=O)N(C)c2cnc(Nc3ccc(C(=O)NCC(C)(C)CN(C)C)cc3OC)nc2N1CCC(C)C` [Example 168], the results for the IC50 in the assay on HeLaS3 cells and in the assay on H460-VINC were 42 nM and 88 nM, respectively.

As for `Cc1cc(C(=O)NC2CCN(C)CC2)ccc1Nc1ncc2c(n1)N(C1CCCCC1)[C@H](C)C(=O)N2C` [Example 94], the IC50 in the assay with HeLaS3 cells is 18 nM; in the assay with H460-VINC, 510 nM.

On to `COc1cc(C(=O)NC2CCN(Cc3ccccc3)CC2)ccc1Nc1ncc2c(n1)N(C1CCCCC1)C(C)C(=O)N2C` (centres unmarked) [Example 115], for which the IC50 was 16 nM in the assay on HeLaS3 cells and 76 nM with H460-VINC.

For orientation: IC50 means the concentration that gives 50% inhibition. Low values mean greater potency, high ones weaker potency.
